A word on the IC50: it is the concentration that gives 50% inhibition.

The test system of data set [1] is sugar transporters of the facilitated diffusion type. The following applies: aglycon of phloridzin; reported; cited from earlier work.
For data set [2] the following is noted: intravenously administered to rats; Nonpatent Document 2; cited from earlier work.
For another data set, the target named is T1, human SGLT2 (Homo sapiens, UniProt P31639).
T1 construct: expressed in transfected cells; host or cells: CHO-K1
T1 sequence (P31639 1-672): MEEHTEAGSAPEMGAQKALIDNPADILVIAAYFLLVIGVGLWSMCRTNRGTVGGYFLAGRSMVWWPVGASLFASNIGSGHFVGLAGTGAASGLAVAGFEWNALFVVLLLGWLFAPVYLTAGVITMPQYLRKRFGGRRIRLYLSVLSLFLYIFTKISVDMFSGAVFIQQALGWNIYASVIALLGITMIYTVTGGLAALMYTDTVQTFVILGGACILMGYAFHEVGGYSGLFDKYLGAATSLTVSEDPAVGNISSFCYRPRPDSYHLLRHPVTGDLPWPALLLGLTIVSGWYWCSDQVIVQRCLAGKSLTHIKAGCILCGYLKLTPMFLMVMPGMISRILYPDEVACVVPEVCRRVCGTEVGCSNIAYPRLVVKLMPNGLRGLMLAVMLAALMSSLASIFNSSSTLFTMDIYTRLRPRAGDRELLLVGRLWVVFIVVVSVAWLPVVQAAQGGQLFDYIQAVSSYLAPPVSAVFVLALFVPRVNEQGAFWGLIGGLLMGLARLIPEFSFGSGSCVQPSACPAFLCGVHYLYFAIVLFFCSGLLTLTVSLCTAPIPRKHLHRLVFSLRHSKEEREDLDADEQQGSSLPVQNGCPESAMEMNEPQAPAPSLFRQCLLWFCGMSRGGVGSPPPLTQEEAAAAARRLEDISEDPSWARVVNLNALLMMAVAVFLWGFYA
The data set is described as follows: Inhibitory activity against methyl-α-D-glucopyranoside uptake of human SGLT2. Type of data set: cell-based. The following applies: SGLT2 inhibition; methyl-α-D-(U-14C)glucopyranoside uptake in CHO-K1 cells stably expressing human SGLT2, 45 minutes at 37° C. The source says:
Evaluation of Inhibitory Activity Against methyl-α-D-glucopyranoside uptake of human Na^+-glucose cotransporter (SGLT1 and SGLT2)
Human SGLT2 cDNA was amplified by PCR with a cDNA library derived from human kidney (Clontech) as a template, synthetic DNA primers and KOD+ DNA Polymerase. The amplified cDNA was inserted into pcRII-Topo vector by using a Topo TA Cloning Dual Promoter kit. E. coli competent cells (TPO10) were transformed with the plasmid vector, cultured in LB medium containing ampicillin (50 mg/L) to grow ampicillin-resistant clones. The plasmid vector containing human SGLT2 cDNA was purified from the clone in a standard manner. Human SGLT2 cDNA added restriction enzyme recognition sites (Xho I at 5′-end, Hind III at 3′-end) was amplified by PCR with the plasmid vector as a template, synthetic DNA primers containing an additional restriction enzyme recognition site and KOD+ DNA Polymerase. This amplified cDNA was digested with Xho I and Hind III, and ligated into expression vector pcDNA3.1(−) digested with Xho I and Hind III by using a Rapid DNA Ligation kit. E. coli competent cells (DH5α) were transformed with the ligated expression vector and grown in ampicillin-containing LB medium. Human SGLT2 expression vector was purified from the ampicillin-resistant clone in a standard manner.
The human SGLT1 expression vector or the human SGLT2 expression vector was digested with the restriction enzyme Pvu I and transfected into CHO-Kl cells with FuGENE (Roche Diagonostics). After the transfection, the cells were cultured at 37° C. in the presence of 5% CO2 for about 3 weeks in DMEM medium (Gibco) containing penicillin (50 U/mL, SIGMA), streptomycin (50 mg/L, SIGMA), geneticin (200 mg/L, Nacalai Tesque, Inc., Japan) and 20% fetal bovine serum to obtain geneticin-resistant clones. Among these clones, clones stably expressing human SGLT1 or human SGLT2 were selected by the evaluating the sodium-dependent uptake activity of sugar (methyl-α-D-glucopyranoside). […]

For `O=C(CCc1ccc(O)cc1)c1c(O)cc(O)cc1O` [phloretin], the “inhibition of sugar transporters of the facilitated diffusion type” value in data set [1] was “strongly inhibit”. Besides, the “adverse effect on intracerebral glucose levels” value in data set [2] was “reducing intracerebral glucose levels”. For the compound `CCc1ccc(Cc2ccc3c(c2)[C@]2(OC3)O[C@H](CO)[C@@H](O)[C@H](O)[C@H]2O)cc1` [Example 1, 1,1-Anhydro-1-C-[5-(4-ethylphenyl)methyl-2-(hydroxymethyl)phenyl]-β-D-glucopyranose], the IC50 against human SGLT2 came to 4.2 nM. Same read-out and setting: to `CC(C)c1ccc(Cc2ccc3c(c2)[C@]2(OC3)O[C@H](CO)[C@@H](O)[C@H](O)[C@H]2O)cc1` [Example 4, 1,1-Anhydro-1-C-[5-(4-isopropylphenyl)methyl-2-(hydroxymethyl)phenyl]-β-D-glucopyranose] belongs 5 nM. At human SGLT2, `OC[C@H]1O[C@]2(OCc3ccc(Cc4cc5ccccc5s4)cc32)[C@H](O)[C@@H](O)[C@@H]1O` [Example 2, 1,1-Anhydro-1-C-[5-(2-benzothiophenyl)methyl-2-(hydroxymethyl)phenyl]-β-D-glucopyranose] registered an IC50 of 4 nM.

Source of the values: patent US7767651B2, “Spiroketal derivatives and use thereof as diabetic medicine” (Chugai Seiyaku Kabushiki Kaisha, priority 2005, dated 2010).
